Measured values as given in patent US20160326165A1, “ALKOXYCARBONYL HEMIACETAL-TYPE ESTER PRODRUG OF PYRIDONE CARBOXYLIC ACID ANTIBACTERIAL DRUG” (KINKI UNIVERSITY, priority 2013, published 2016).
≈ marks a conversion by molar mass, not a printed value.

Assays:
[1] = test system: Pseudomonas-aeruginosa ATCC 27853; experiment: MIC (minimum inhibitory concentration) against Pseudomonas-aeruginosa ATCC 27853; format: cell-based
Excerpt: (§1) The MIC activity unit in the table is μg/mL.

[2] = test system: Escherichia coli ATCC 25922; experiment: MIC against Escherichia coli ATCC 25922; format: cell-based; details: ATCC25922
Excerpt: as §1

Escherichia coli NIH JC2 = experiment: MIC against Escherichia coli NIH JC2; format: cell-based; details: NIHJC2
Excerpt: as §1

Enterobacter ATCC 23355 = experiment: MIC against Enterobacter ATCC 23355; format: cell-based; details: ATCC23355
Excerpt: as §1

[3] = Rat intestinal everted sac method: intestinal absorption and hydrolysis to LVFX, alone or with AlCl3; format: in vitro ADME; details: for LVFX concentration generated within the small intestine lumen from the ester alone versus LVFX alone / influence of simultaneous administration of AlCl3 on LVFX generated: incubation 60 minutes; for hydrolysis into LVFX: incubation for 60 minutes, small intestine; for drug substance LVFX as a hydrolysis product in the everted intestinal tract: ester
Procedure: 1. Glucose 200 mg was dissolved in 100 ml of 20 mM HEPES buffer isotonic sodium chloride solution, and pH is regulated at 7.4 with 5N- or 1N-sodium hydroxide by measuring pH (If pH rises, pH is modulated with 1N-hydrochloric acid.).
1. Similarly in the case of independent administration, glucose 200 mg is dissolved in 100 ml of 20 mM HEPES buffer isotonic sodium chloride solution, and pH is regulated at 7.4 with 5N- or 1N-sodium hydroxide by measuring pH (If pH rises, pH is modulated with 1N-hydrochloric acid.).
2. AlCl3 8.0 mg is dissolved (600 μM).
1. A SD type male rat of 8-week old after the birth is purchased and undergoes quarantine habituation for two days. After fasting for 24 hours, a pentobarbital sodium (50 mg/ml) is injected intraperitoneally in the amount (ml) of: rat weight (g)×0.05/50 (that is, weight (g)×0.001).
2. After the rat sleeps completely, it is incised in the abdomen so as to be observed from the stomach till the bladder, and the intestinal tract is removed from the end of the duodenum to the front 5 cm of the cecum.
3. The intestinal tract is cut off every 10 cm carefully, and all portions are washed with physiological saline (both circumference and inside of intestinal).
4. The intestinal tract is made reversed from the stomach side using a stainless steel tube.
5. The cecum side of the reversed intestinal tract is tied with sutures to make bag-shaped.
6. One (1) ml of the HEPES buffer isotonic sodium chloride solution adjusted is put in from the stomach side of the intestinal tract, and the intestinal tract is tied with a suture.
7. The tied intestinal tract is put in the HEPES buffer isotonic sodium chloride solution cooled upon ice, and is preserved.
2. One (1) ml of the drug solution is taken, and it is diluted with 9 ml of the HEPES buffer isotonic sodium chloride solution 10 times (2 mM).
3. A portion (5 ml) of the solution is further diluted with 95 ml of the HEPES buffer isotonic sodium chloride solution to 20 times (100 μM).
1. Thirty (30) ml of the diluted drug solution is taken to a 50-ml Erlenmeyer flask, and the intestinal tract containing a HEPES buffer isotonic sodium chloride solution is put in.
2. […]
3. The intestinal tract is taken out from the drug solution, and, after flushing and wiping off the drug solution attached to the surroundings of the intestinal tract with the physiological saline, all liquid in the intestinal tract is taken out into the Eppendorf tube.
4. The liquid is centrifuged for 5 minutes at 12,000 rpm.
5. 250 μL of a supernatant liquid is taken as a sample.
The method is the same as the HPLC measurement conditions mentioned above in-vivo experiment.

[4] = test system: Pseudomonas-aeruginosa (ATCC27853), Escherichia coli (ATCC25922 and NIH JC2), and Enterobacter (ZTCC23355); experiment: Comparison of antibacterial activities of LVFX and LVFX-EHE over all tested strains; format: cell-based; details: all four strains of Table 11
[5] = Blood concentration and AUC of LVFX after oral administration to rats, alone or with a metal-containing preparation; details: for blood concentration of LVFX after independent administration of the ester versus independent administration of LVFX / blood concentration of LVFX under concomitant use of polyvalent metal-containing antacid: 0-240 minutes
Procedure: A cannulation inner tube (Fuji Systems Corporation Ltd., Tokyo) having an internal diameter of 0.5 mm and an outside diameter of 1.0 mm which is used for blood collecting was inserted in the jugular vein of rats on the preceding day before the administration experiment, and the rats were made to abstain from food for 20 hours in an environment where only water can be taken in the animal room.
The polyvalent metal-containing preparation Al(OH)3 was administered in a dose of 30 mg/kg subject.
After administration of the drug, a blood sample was collected through a jugular vein cannulation inner tube in an amount of 200 μL each along the time elapsed (after 0, 15, 30, 45, 60, 90, 120, 180, and 240 minutes) in a 1-mL syringe treated with heparin, the blood was centrifuged for 5 minutes at 12,000 rpm and 4 deg C immediately, and 50 μL of a supernatant was taken to make plasma.
The following procedures were carried out successively: addition of 100 μL of methanol solution containing 10 μmol/L of CPFX as an internal standard substance to 50 μL of plasma, then stirring; centrifuging for 5 minutes at 6,200 rpm; sampling 100 μL of the supernatant with a syringe; filtering the sample solution using Millex (registered trademark)-HV (0.45 micrometer, MILLIPORE, Billerica, Mass., USA). […] The HPLC measurement conditions were as follows; the column used: TSK-GEL ODS-80 Ts (250×4.6 mm, TOSOH Corp., Tokyo), the mobile phase used: 20-mm sodium-phosphate buffer solution (pH 3.0)/acetonitrile=79:21 (v/v). The measurement was carried out using Shimazu SPD-20A Spectrometer detector (Shimadzu, Kyoto) with 280 nm detection wavelength, and flow rate was 1.0 mL/min. The retention times obtained by these conditions were 6.9 minutes for ENX, and 7.2 minutes for CPFX.
The differences of AUCs between 4 groups were computed by performing the multiple comparison by Dunnett's method, and the range of p<0.05 was understood as having a statistical significance.

| Compound | MIC [1] [µg/mL] | MIC [2] [µg/mL] | MIC (Escherichia coli NIH JC2) [µg/mL] | MIC (Enterobacter ATCC 23355) [µg/mL] | absorption amount with AlCl3 as percent of LVFX administration alone ([3]; LVFX and AlCl3 concomitantly) | LVFX concentration generated within the small intestine lumen from the ester alone versus LVFX alone [3] | influence of simultaneous administration of AlCl3 on LVFX generated [3] | hydrolysis into LVFX [3] | MIC values considered from clinical break points [4] | antibacterial activity as compared to that of LVFX ([4]; ratio to LVFX) | AUC of LVFX in blood on co-administration with the metal-containing preparation versus LVFX independent administration [5] | blood concentration of LVFX after independent administration of the ester versus independent administration of LVFX [5] | blood concentration of LVFX under concomitant use of polyvalent metal-containing antacid [5] | drug substance LVFX as a hydrolysis product in the everted intestinal tract ([3]; concomitant administration with aluminum chloride) | drug substance LVFX as a hydrolysis product in the everted intestinal tract ([3]; independent administration alone) | peak of LVFX in blood derived from the ester ([5]; ester administered alone) | peak of LVFX in blood derived from the ester ([5]; ester co-administered with Al(OH)3 30 mg/kg) |
| --- | --- | --- | --- | --- | --- | --- | --- | --- | --- | --- | --- | --- | --- | --- | --- | --- | --- |
| C[C@H]1COc2c(N3CCN(C)CC3)c(F)cc3c(=O)c(C(=O)O)cn1c23 [LVFX, (3S)-9-fluoro-3-methyl-10-(4-methyl-1-piperazinyl)-7-oxo-2,3-dihydro-7H-pyrid [1,2,3-de] [1,4] benzoxazine-6-carboxylic acid, reference compound] | 0.5 (≈ 1.38 µM) | ≤ 0.065 | ≤ 0.065 | ≤ 0.065 | about 54% | – | – | – | – | – | – | – | – | – | – | – | – |
| CCOC(=O)OC(C)OC(=O)c1cn2c3c(c(N4CCN(C)CC4)c(F)cc3c1=O)OC[C@@H]2C (stereo partly drawn) [LVFX-EHE, Levofloxacin ethoxycarbonyl-1-ethyl hemiacetal-type ester] | 8 (≈ 16.8 µM) | 0.5 (≈ 1.05 µM) | 0.5 (≈ 1.05 µM) | 2 (≈ 4.19 µM) | – | no significant difference | no influence | completely hydrolyzed | non-sensitive to any bacterial strains | 1/10 | no significant difference | Significant differences were not observed | not influenced | – | – | – | – |
| CC(C)OC(=O)OC(C)OC(=O)c1cn2c3c(c(N4CCN(C)CC4)c(F)cc3c1=O)OC[C@@H]2C (mixture of isomers) [LVFX-iPrHE, Levofloxacin isopropoxycarbonyl 1-ethyl hemiacetal-type ester] | – | – | – | – | – | no significant difference | no influence | completely hydrolyzed | – | – | no significant difference | A significant difference was not found | not influenced | – | – | – | – |
| COC(=O)c1cn2c3c(c(N4CCN(C)CC4)c(F)cc3c1=O)OC[C@@H]2C [LVFX-M, (S)-Methyl-9-fluoro-3-methyl-10-(4-methylpiperazine-1-yl)-7-oxo-3,7-dihydro-2H-[1,4] oxazolino [2,3,4-ij] quinolin-6-carboxylate, reference compound] | – | – | – | – | – | – | – | – | – | – | – | – | – | not detected | not detected | no peak was detected | no peak was detected |
